Experimental data taken from publication PMC6585632 (Clinical Pharmacology in Drug Development, 2018).
Where “and” joins values, the source holds several entries; their conditions need not be identical. Identical values can stand only once. Entries after “also recorded” stand apart in the source; their conditions may differ. Like-named read-outs stand apart in the source and are kept apart here. Marks after values point to notes of the source that are not given here.

Experiments:
human hepatocytes = settings: incubation with human hepatocytes; ref Clovis Oncology, Inc., data on file; cited from earlier work
[1] = Steady-state pharmacokinetics in food effect cohorts; format: in vivo, human; settings: for Tmax / Cmax / AUC / half-life: human, plasma, oral; for Cmax / AUC / half-life: cycle 1 day 15 steady state; for AUC: AUC0‐t
[2] = Safety: treatment-emergent adverse events; format: in vivo, human
[3] = normal metabolizers vs hyperinducers; cited from earlier work
[4] = Dose proportionality at steady state; format: in vivo, human; settings: 40–500 mg QD and 240–840 mg BID
[5] = format: in vivo, human; settings: for Steady state reached by: plasma trough concentrations; for Arithmetic Mean CLss/F (CV%): day 15 steady state
[6] = system: Recombinant human cytochrome P450 (CYP) 2D6; settings: recombinant human CYP2D6; ref Clovis Oncology, Inc., data on file; cited from earlier work
[7] = Effect of a high-fat meal on single-dose pharmacokinetics; format: in vivo, human; settings: for AUC / Cmax / half-life / Tmax: human, plasma, oral; for AUC: AUC0‐24h
[8] = incubation with human liver microsomes; ref Clovis Oncology, Inc., data on file; cited from earlier work
[9] = Part 3, 600 mg BID (n = 26), Grade 5
[10] = Part 3, single dose 600 mg, fasted
[11] = Part 3, single dose 600 mg, fed
[12] = Part 3, single dose 600 mg, high‐fat meal
[13] = 40 mg, arithmetic mean, Part 1, single dose 40 mg, cycle 1 day –7 fasted, n 3
[14] = 40 mg, median, Part 1, single dose 40 mg, cycle 1 day –7 fasted, n 3
[15] = 40 mg, median, Part 1, single dose 40 mg, cycle 1 day 1 fed (high-fat meal), n 3

For `CNCc1ccc(-c2[nH]c3cc(F)cc4c3c2CCNC4=O)cc1` [rucaparib], the metabolic turnover rate (human hepatocytes) is listed as “slow metabolic turnover rates”, the “Mean (CV%) steady‐state CLss/F” value ([1]; continuous 600 mg BID, Part 3, CV 45%) is listed as 44.2 L/h and the Tmax ([1]; 40 mg) is listed as 4 h. The Cmax ([1]; 40 mg, arithmetic mean, Part 1 food effect cohort, 40 mg QD, n 3) was 129 ng/mL, the Cmax ([1]; 40 mg, median, Part 1 food effect cohort, 40 mg QD, n 3) was 103 ng/mL and the Tmax ([1]; 300 mg) was 2.47 h. It also gave an AUC ([1]; 300 mg, arithmetic mean, Part 1 food effect cohort, 300 mg QD, t = 24 hours, n 3) of 13300 ng·h/mL, an AUC ([1]; 300 mg, median, Part 1 food effect cohort, 300 mg QD, t = 24 hours, n 3) of 5220 ng·h/mL and a Cmax ([1]; 300 mg, arithmetic mean, Part 1 food effect cohort, 300 mg QD, n 5) of 727 ng/mL. The Cmax ([1]; 300 mg, median, Part 1 food effect cohort, 300 mg QD, n 5) was 444 ng/mL, the half-life ([1]; 300 mg, t1/2, arithmetic mean, Part 1 food effect cohort, 300 mg QD, n 3) was 20 h and the half-life ([1]; 300 mg, t1/2, median, Part 1 food effect cohort, 300 mg QD, n 3) was 27.5 h. It also gave a Tmax ([1]; 600 mg) of 1.92 h, an AUC ([1]; 600 mg, arithmetic mean, Part 3, 600 mg BID, t = 10 hours, n 18) of 15800 ng·h/mL and an AUC ([1]; 600 mg, median, Part 3, 600 mg BID, t = 10 hours, n 18) of 12900 ng·h/mL. For the same compound, the Cmax ([1]; 600 mg, arithmetic mean, Part 3, 600 mg BID, n 18) was 1940 ng/mL, the Cmax ([1]; 600 mg, median, Part 3, 600 mg BID, n 18) was 1480 ng/mL and the “deaths due to disease progression” value ([2]; Part 1) was “Three”. The “treatment‐related deaths” value ([2]; Part 1) was “No treatment‐related deaths”, the “treatment‐related deaths” value ([2]; Part 3, 600 mg BID) was “No treatment‐related deaths” and the Dyspnea [2, 9] was 1 (3.8%) n (%). The Pulmonary embolism [2, 9] was 1 (3.8%) n (%), the “effect of CYP1A2 polymorphisms on pharmacokinetics” value [3] was “no apparent effect” and the “dose proportionality of plasma exposure” value [4] was “approximately dose proportional”. The “steady‐state accumulation ratio (Rac_AUC0‐12h), range over cohorts” value ([5]; BID dosing 240‐840 mg) was 1.47 to 5.44, the “Estimated mean CLss/F, range over cohorts” value ([5]; BID dosing schedule) was 26.2 to 58.6 L/h and the “Steady state reached by” value ([5]; BID dosing schedule) was ≤ 8 cycle 1 day. The “Arithmetic Mean CLss/F (CV%)” value ([5]; Part 1, 40 mg QD oral) was 26.7 (59) L/h, the “Arithmetic Mean CLss/F (CV%)” value ([5]; Part 1, 80 mg QD oral) was 47.5 (23) L/h and the “Arithmetic Mean CLss/F (CV%)” value ([5]; Part 1, 160 mg QD oral, n = 3) was 41.6 (29) ^b L/h. For the same compound, the “Arithmetic Mean CLss/F (CV%)” value ([5]; Part 1, 240 mg BID oral, n = 2) was 27.3 ^a L/h, the “Arithmetic Mean CLss/F (CV%)” value ([5]; Part 1, 300 mg QD oral) was 46.7 (63) L/h and the “Arithmetic Mean CLss/F (CV%)” value ([5]; Part 1, 360 mg BID oral, n = 2) was 40.4 ^a L/h. For the same compound, the “Arithmetic Mean CLss/F (CV%)” value ([5]; Part 1, 480 mg BID oral, n = 6) was 26.2 (63) ^d L/h, the “Arithmetic Mean CLss/F (CV%)” value ([5]; Part 1, 500 mg QD oral) was 27.8 (35) L/h and the “Arithmetic Mean CLss/F (CV%)” value ([5]; Part 1, 600 mg BID oral, n = 4) was 58.6 (123) ^g L/h. For the same compound, the “Arithmetic Mean CLss/F (CV%)” value ([5]; Part 1, 840 mg BID oral, n = 1) was 29 ^c L/h, the “Rac_Cmax at steady state, range over cohorts” value ([5]; Part 1 BID cohorts) was 2.6 to 4.9 and the “Rac_Cmax at steady state, range over cohorts” value ([5]; Part 1 QD cohorts) was 1.06 to 1.8. For the same compound, the “steady‐state accumulation ratio (Rac_AUC0‐24h), range over cohorts” value ([5]; QD dosing 40‐500 mg) was 1.60 to 2.33 and 1.6 to 2.33, the “Estimated mean CLss/F, range over cohorts” value ([5]; QD dosing schedule) was 26.7 to 47.5 L/h and the “Steady state reached by” value ([5]; QD dosing schedule) was ≤ 8 cycle 1 day. The “CLss as share of the normal liver blood flow rate (1450 mL/min)” value ([5]; at tested oral dose levels) was ≤ 24%, the “CLss, estimated from CLss/F and oral bioavailability of 36%” value ([5]; at tested oral dose levels) was ≤ 350 mL/min and the Cmax ([5]; human, plasma, oral, 500 mg, mean Cmax, range over cohorts, Part 1 QD cohorts 40‐500 mg, cycle 1 day 1 single dose) was 114 to 949 ng/mL. For the same compound, the Tmax ([5]; human, plasma, oral, Median tmax, range over cohorts, Part 1 QD cohorts) was 1.5 to 4 h, the Tmax ([5]; human, plasma, oral, cohort median tmax, range, across all doses and tablet strengths tested (Parts 1 and 3)) was 1.5 to 6 h and the Tmax ([5]; human, plasma, po, 360 mg, Median tmax (range), Part 1, 360 mg BID oral, day 1) was 3.23 h. For the same compound, the “metabolism by recombinant enzyme” value [6] was “able to metabolize rucaparib”, the “effect of food (high‐fat meal) on rucaparib pharmacokinetics” value ([7]; Part 1, single dose of 40 mg (n = 3) or 300 mg (n = 6)) was “No effect of food; also recorded: Minimal food effect” and the “median tmax delay by a high‐fat meal” value ([7]; Part 3, single dose 600 mg) was 2.5 h. The “intersubject variability (CV%) of the geometric mean AUC0‐24h” value [7, 10] was 84.6%, the “intersubject variability (CV%) of the geometric mean Cmax” value [7, 10] was 87.5% and the “intersubject variability (CV%) of the geometric mean AUC0‐24h” value [7, 11] was 86.8%. The “intersubject variability (CV%) of the geometric mean Cmax” value [7, 11] was 82.8%, the “fed‐to‐fasted geometric mean ratio (90%CI) for AUC0‐24h” value [7, 12] was 138% and the “fed‐to‐fasted geometric mean ratio (90%CI) for Cmax” value [7, 12] was 120%. For the same compound, the AUC ([7]; 40 mg, arithmetic mean, Part 1, single dose 40 mg, cycle 1 day 1 fed (high-fat meal), n 2) was 794 ng·h/mL, the AUC [7, 13] was 741 ng·h/mL and the AUC ([7]; 40 mg, median, Part 1, single dose 40 mg, cycle 1 day 1 fed (high-fat meal), n 2) was 794 ng·h/mL. For the same compound, the AUC [7, 14] was 468 ng·h/mL, the Cmax ([7]; 40 mg, arithmetic mean, Part 1, single dose 40 mg, cycle 1 day 1 fed (high-fat meal), n 3) was 64.8 ng/mL and the Cmax [7, 13] was 77.9 ng/mL. It also gave a Cmax [7, 15] of 71.1 ng/mL, a Cmax [7, 14] of 57.6 ng/mL and a half-life ([7]; 40 mg, t1/2, arithmetic mean, Part 1, single dose 40 mg, cycle 1 day 1 fed (high-fat meal), n 3) of 12.6 h. It also gave a half-life ([7]; 40 mg, t1/2, arithmetic mean, Part 1, single dose 40 mg, cycle 1 day –7 fasted, n 3) of 10.6 h, a half-life ([7]; 40 mg, t1/2, median, Part 1, single dose 40 mg, cycle 1 day 1 fed (high-fat meal), n 3) of 12.7 h and a half-life ([7]; 40 mg, t1/2, median, Part 1, single dose 40 mg, cycle 1 day –7 fasted, n 3) of 8.16 h. The Tmax [7, 15] was 2.55 h, the Tmax [7, 14] was 4 h and the AUC ([7]; 300 mg, arithmetic mean, Part 1, single dose 300 mg, cycle 1 day 1 fed (high-fat meal), n 5) was 6890 ng·h/mL. For the same compound, the metabolic turnover rate [8] was “slow metabolic turnover rates”.
